IC50 data for 19 molecules are collected here from US20260001879A1, “COMPOUNDS AS MYT1 INHIBITORS” (WIGEN BIOMMEDICINE TECHNOLOGY (SHANGHAI) CO., LTD., priority 2022, published 2026).

The target of experiment [1] is recombinant protein MYT1 (Homo sapiens (Human), UniProt Q99640). Nature of the experiment: In vitro assay for inhibiting MYT1 kinase activity (ADP-GLO). The experiment is classed as biochemical. As to conditions: 10 μM ATP, read-out: Inhibitory activity against recombinant protein MYT1 IC50. How it is done: Recombinant MYT1 protein and the compounds were pre-incubated at room temperature for 15 min, and 10 μM ATP was then added to start the reaction. The mixture was incubated at room temperature for another 60 min, and the ADP-GLO reagent from Promega was then added. The resulting mixture was incubated in the dark for 40 min, a detection solution was then added, and the mixture was incubated for another 45-60 min. The chemiluminescence was determined using ENVISION. The inhibition rate and IC50 were calculated compared to the DMSO group.

The subject of experiment [2] is MIA PaCa-2 cells. Kind of experiment: In vitro anti-proliferative activity against MIA PaCa-2 cells (compound alone). The experiment is classed as cell-based. As to conditions: 72 h, intracellular ATP content. How it is done: MIA PaCa-2 cells were seeded on a 384-well plate at 3000 cells/well. After overnight adherence culture, DMSO or the compounds serially diluted 1:5 from 10 μM were added. The viability was assessed 72 h after dosing by measuring the intracellular ATP content. The inhibition percentage of viable cells by the compounds was calculated by comparing with the DMSO group, and the IC50 value was calculated.

Experiment [3] deals with MIA PaCa-2 cells. Kind of experiment: In vitro anti-proliferative activity in combination with gemcitabine against MIA PaCa-2 cells. The experiment is classed as cell-based. As to conditions: read-out: Anti-proliferative activity against MIA PaCa-2 cells (20 nM gemcitabine) IC50; with 20 nM gemcitabine, 72 h, intracellular ATP content. On the procedure: MIA PaCa-2 cells were seeded on a 384-well plate at 3000 cells/well, and 20 nM gemcitabine was added. After overnight adherence culture, DMSO or the compounds serially diluted 1:5 from 1000 nM were added. The viability was assessed 72 h after dosing by measuring the intracellular ATP content. The inhibition percentage of viable cells by the compounds was calculated by comparing with the DMSO group, and the IC50 value was calculated.

Sequence of recombinant protein MYT1 (Q99640 whole entry): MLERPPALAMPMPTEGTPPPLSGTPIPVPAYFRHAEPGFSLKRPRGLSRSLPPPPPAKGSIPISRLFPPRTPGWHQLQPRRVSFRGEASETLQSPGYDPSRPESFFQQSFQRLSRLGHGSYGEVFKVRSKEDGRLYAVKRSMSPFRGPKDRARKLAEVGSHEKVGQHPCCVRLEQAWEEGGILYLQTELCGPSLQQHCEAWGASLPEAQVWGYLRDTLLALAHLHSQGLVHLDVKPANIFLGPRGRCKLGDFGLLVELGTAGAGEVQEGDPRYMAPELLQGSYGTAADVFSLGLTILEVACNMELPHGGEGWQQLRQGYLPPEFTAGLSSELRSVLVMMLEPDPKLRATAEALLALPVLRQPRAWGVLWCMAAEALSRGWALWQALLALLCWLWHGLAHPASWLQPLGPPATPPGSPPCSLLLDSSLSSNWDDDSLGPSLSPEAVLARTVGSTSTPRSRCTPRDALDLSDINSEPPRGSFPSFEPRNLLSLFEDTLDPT

The IC50 is the midpoint of a concentration-inhibition curve. For `Cc1cc2c(C(N)=O)c(N)n(-c3c(C)c(O)cc(C(F)(F)F)c3C)c2nc1C` [Compound 208], in experiment [1], the IC50 was at most 200 nM.

As to `Cc1ccc(O)c(C)c1-n1c(N)c(C(N)=O)c2cc(C#N)c(C)nc21` [Compound 11], the IC50 is above 10000 nM in experiment [2], above 1000 nM in experiment [3] and at most 200 nM in experiment [1]. With `Cc1cc(F)c(O)c(C)c1-n1c(N)c(C(N)=O)c2cc3c(nc21)COC3` [Compound 134], in experiment [1], the 50% inhibitory concentration (IC50) was at most 200 nM. As to `Cc1ccc(O)c(C)c1-n1c(N)c(C(N)=O)c2cc3c(nc21)COC3` [Compound 15], the IC50 in experiment [1] is at most 200 nM. Same read-out and setting: the value for `Cc1ccc(O)c(C)c1-n1c(N)c(C(N)=O)c2cc3ncccc3nc21` [Compound 50] was at most 200 nM.

Regarding `Cc1ccc(O)c(C)c1-n1c(N)c(C(N)=O)c2cc3c(nc21)C=CC3` [Compound 109], the IC50 in experiment [1] was at most 200 nM. Regarding `Cc1ccc(O)c(C)c1-n1c(N)c(C(N)=O)c2cc3cn(C)cc3nc21` [Compound 73], in experiment [1], the IC50 is at most 200 nM.

`Cc1ccc(O)c(C)c1-n1c(N)c(C(N)=O)c2cc3c(nc21)CCCN3C` [Compound 104]: the IC50 in experiment [1] is at most 200 nM.

With `Cc1ccc(O)c(C)c1-n1c(N)c(C(N)=O)c2cc3ccoc3nc21` [Compound 61], in experiment [1], the 50% inhibitory concentration (IC50) is at most 200 nM. As to `Cc1cc2c(C(N)=O)c(N)n(-c3c(C)c(O)cc(F)c3C)c2cc1C#N` [Compound 166], in experiment [1], the IC50 was at most 200 nM. Same read-out and setting: the figure for `Cc1nc2c(cc1C#N)c(C(N)=O)c(N)n2-c1c(C)c(O)cc(F)c1C` [Compound 137] is at most 200 nM. Turning to `Cc1cc2c(C(N)=O)c(N)n(-c3c(C)c(O)cc4ccoc34)c2nc1C` [Compound 130], the 50% inhibitory concentration (IC50) in experiment [1] was at most 200 nM. Take `Cc1cc2c(C(N)=O)c(N)n(-c3c(C)ccc(O)c3C)c2cc1C#N` [Compound 157]: the IC50 in experiment [1] is at most 200 nM.

For `Cc1ccc(O)c(C)c1-n1c(N)c(C(N)=O)c2cc3c(nc21)OCC3` [Compound 20], in experiment [1], the IC50 was at most 200 nM. Still for that read-out and setting: the value for `Cc1ccc(O)c(C)c1-n1c(N)c(C(N)=O)c2cc3c(nc21)CN(C)CC3` [Compound 99] was at most 200 nM; that for `Cc1ccc(O)c(C)c1-n1c(N)c(C(N)=O)c2cc3c(nc21)CCN3` [Compound 77] was at most 200 nM. Still for that read-out and setting: the figure for `Cc1cc2c(C(N)=O)c(N)n(-c3c(C)cc(F)c(O)c3C)c2cc1C#N` [Compound 169] is at most 200 nM. Consider `Cc1cc2c(C(N)=O)c(N)n(-c3c(C)cc4c(c3C)NCC4)c2nc1C` [Compound 151], for which the IC50 in experiment [3] was above 1000 nM. As for `Cc1cc2c(cc1C#N)c(C(N)=O)c(N)n2-c1c(C)c(O)cc(F)c1C` [Compound 160], the 50% inhibitory concentration (IC50) in experiment [1] was at most 200 nM.
